This is an account of results in patent publication US20250368648A1, “MULTI-CYCLIC IRAK AND FLT3 INHIBITING COMPOUNDS AND USES THEREOF” (CHILDREN'S HOSPITAL MEDICAL CENTER, priority 2022, published 2025).

For experiment [1], the target named is T1, IRAK4 (Homo sapiens, UniProt Q9NWZ3).
T1 sequence (Q9NWZ3 1-460): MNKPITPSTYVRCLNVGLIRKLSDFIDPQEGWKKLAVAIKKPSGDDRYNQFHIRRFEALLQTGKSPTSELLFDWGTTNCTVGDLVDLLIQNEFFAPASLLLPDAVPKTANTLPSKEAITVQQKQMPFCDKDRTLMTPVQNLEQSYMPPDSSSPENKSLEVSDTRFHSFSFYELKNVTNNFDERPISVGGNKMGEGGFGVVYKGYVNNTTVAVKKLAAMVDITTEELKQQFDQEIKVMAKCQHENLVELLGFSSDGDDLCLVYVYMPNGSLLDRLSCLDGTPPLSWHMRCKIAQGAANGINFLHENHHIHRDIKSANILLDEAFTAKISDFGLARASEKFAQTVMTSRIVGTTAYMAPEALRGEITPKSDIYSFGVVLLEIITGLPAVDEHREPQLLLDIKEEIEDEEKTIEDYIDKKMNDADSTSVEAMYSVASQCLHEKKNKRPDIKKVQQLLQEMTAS
As to the kind of experiment: RBC HotSpot Kinase Assay, IRAK4. In kind it is biochemical. The note with it: HotSpot functional assay, isolated kinase enzyme, 33P-ATP. Set-up: purchased RBC (Reaction Biology) HotSpot assay. The method in brief:
(§1)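 Isolated kinases, possibly truncated or lacking regulatory receptor regions, were preincubated with compound for 20 min at room temp in 20 mM Hepes pH 7.5, 10 mM MgCl2, 1 mM EGTA, 2 mM DTT, 1% DMSO. Reactions were started with ^33P-ATP and run 2 h at room temperature; activity was read by P81 filter binding.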

Experiment [2] addresses T2, FLT3 (Homo sapiens, UniProt P36888).
T2 sequence (P36888 27-993): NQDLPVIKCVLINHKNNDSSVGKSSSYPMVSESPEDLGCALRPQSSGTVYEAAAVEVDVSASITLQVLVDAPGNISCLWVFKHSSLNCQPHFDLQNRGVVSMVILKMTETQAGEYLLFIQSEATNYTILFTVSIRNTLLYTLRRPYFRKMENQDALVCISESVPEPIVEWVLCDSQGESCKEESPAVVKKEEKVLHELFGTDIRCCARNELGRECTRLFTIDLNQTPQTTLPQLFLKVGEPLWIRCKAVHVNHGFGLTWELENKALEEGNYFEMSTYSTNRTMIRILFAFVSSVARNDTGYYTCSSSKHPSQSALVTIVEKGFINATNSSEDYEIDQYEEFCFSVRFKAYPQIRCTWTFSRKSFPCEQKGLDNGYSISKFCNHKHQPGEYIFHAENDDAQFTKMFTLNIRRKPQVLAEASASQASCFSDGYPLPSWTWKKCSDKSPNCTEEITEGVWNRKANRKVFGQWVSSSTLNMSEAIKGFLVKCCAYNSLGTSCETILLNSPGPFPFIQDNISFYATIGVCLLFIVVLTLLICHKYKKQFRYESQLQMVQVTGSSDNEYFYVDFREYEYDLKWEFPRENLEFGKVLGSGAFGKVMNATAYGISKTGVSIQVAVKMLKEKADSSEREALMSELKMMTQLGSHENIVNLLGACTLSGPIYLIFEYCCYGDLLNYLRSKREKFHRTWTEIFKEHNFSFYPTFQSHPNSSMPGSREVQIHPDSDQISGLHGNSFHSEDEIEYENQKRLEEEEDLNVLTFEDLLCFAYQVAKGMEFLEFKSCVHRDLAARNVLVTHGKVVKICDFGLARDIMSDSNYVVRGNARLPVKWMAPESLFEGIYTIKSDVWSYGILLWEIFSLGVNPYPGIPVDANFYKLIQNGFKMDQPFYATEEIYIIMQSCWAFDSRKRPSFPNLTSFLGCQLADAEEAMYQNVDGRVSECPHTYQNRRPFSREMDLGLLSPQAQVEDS
As to the kind of experiment: RBC HotSpot Kinase Assay, FLT3. The class given is biochemical. Details: purchased RBC (Reaction Biology) HotSpot assay. The note with it: HotSpot functional assay, isolated kinase enzyme, 33P-ATP. The method in brief:
as §1

Experiment [3] has as its target T3, IRAK1 (Homo sapiens, UniProt P51617).
T3 construct: purchased RBC (Reaction Biology) HotSpot assay
As to the kind of experiment: RBC HotSpot Kinase Assay, IRAK1. In kind it is biochemical. The note with it: HotSpot functional assay, isolated kinase enzyme, 33P-ATP. An outline of the steps:
as §1

Experiment [4] has as its system MOLM14 D835Y cells. Nature of the experiment: MOLM14 D835Y cell viability assay (Cell Titer Glo). The class given is cell-based. The method, then: The cell line has activated FLT3 receptors which carry additional resistance mutations in the kinase domain (D835Y).
MOLM14 D835Y cells were grown in RPMI-1640 media supplemented with 20% fetal bovine serum (FBS). […] After cell addition, 23 nL of test compound were transferred into individual wells (22 doses tested for each test compound, with a 1:2 dilution series starting at 10 μM) via a 1536 pin-tool. Bortezomib (final concentration 2.3 μM) was used as a positive control for cell cytotoxicity.

Molecules are shown by their SMILES. pIC50: −log10 of the molar value. A value given as a limit tells only on which side of the number the result lay.

T3 sequence (P51617 whole entry): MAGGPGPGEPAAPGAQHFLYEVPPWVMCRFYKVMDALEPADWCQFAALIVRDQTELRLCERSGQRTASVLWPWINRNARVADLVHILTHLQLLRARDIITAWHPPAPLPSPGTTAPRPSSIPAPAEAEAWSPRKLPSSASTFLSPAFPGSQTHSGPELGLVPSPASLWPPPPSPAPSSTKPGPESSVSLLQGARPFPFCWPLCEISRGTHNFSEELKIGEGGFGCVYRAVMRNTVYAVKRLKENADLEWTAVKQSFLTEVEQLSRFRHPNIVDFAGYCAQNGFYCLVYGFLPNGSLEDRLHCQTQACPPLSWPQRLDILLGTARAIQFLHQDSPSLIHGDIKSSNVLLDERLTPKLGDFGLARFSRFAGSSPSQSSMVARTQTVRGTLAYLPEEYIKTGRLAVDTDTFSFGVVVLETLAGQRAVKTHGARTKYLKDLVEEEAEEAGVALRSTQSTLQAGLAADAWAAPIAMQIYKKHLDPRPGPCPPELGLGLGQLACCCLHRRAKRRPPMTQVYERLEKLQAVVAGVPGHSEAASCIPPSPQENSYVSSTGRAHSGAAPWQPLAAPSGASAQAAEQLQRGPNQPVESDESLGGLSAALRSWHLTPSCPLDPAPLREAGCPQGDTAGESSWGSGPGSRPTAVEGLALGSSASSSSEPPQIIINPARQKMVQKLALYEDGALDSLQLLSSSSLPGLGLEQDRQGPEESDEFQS

As usually defined, the pIC50 is the IC50 on a negative log10 scale, so that one unit is a factor of ten. Consider `COc1cc2ncc(-c3ccc(F)c(N[C@@H]4CCCNC4)n3)n2nc1C(C)(C)O` [Compound 6a, (R)-2-(3-(5-fluoro-6-(piperidin-3-ylamino)pyridin-2-yl)-7-methoxyimidazo[1,2-b]pyridazin-6-yl)propan-2-ol], for which the pIC50 in experiment [1] was 6.25; in experiment [2], 8.05; in experiment [3], 5.55; in experiment [4] (Homo sapiens, MOLM-14, 48 h), 6.54.
Turning to `COc1cc2ncc(-c3nc(N[C@@H]4CCCNC4)c(F)cc3F)n2nc1C1CCC1` [Compound 14a, (R)-6-(6-cyclobutyl-7-methoxyimidazo[1,2-b]pyridazin-3-yl)-3,5-difluoro-N-(piperidin-3-yl)pyridin-2-amine], the pIC50 in experiment [1] was 8.40; in experiment [2], greater than 9.30; in experiment [3], 7.92; in experiment [4] (Homo sapiens, MOLM-14, 48 h), 7.82.
`COc1cc2ncc(-c3nc(N[C@@H]4CCCNC4)ccc3F)n2nc1C(C)(C)O` [Compound 3a]: the pIC50 in experiment [1] was 6.83; in experiment [2], 9.00; in experiment [3] it was 6.36; in experiment [4] (Homo sapiens, MOLM-14, 48 h) it was 7.34.
For `Fc1cc(F)c(-c2cnc3cc(OCC(F)F)cnn23)nc1N[C@H]1CNC[C@@H]1F` [Compound 82a, 6-(7-(2,2-difluoroethoxy)imidazo[1,2-b]pyridazin-3-yl)-3,5-difluoro-N-((3 S,4S)-4-fluoropyrrolidin-3-yl)pyridin-2-amine], the pIC50 is 8.05 in experiment [1]; greater than 9.30 in experiment [2]; 6.36 in experiment [3]; 6.69 in experiment [4] (Homo sapiens, MOLM-14, 48 h).
As for `COc1cc2ncc(-c3nc(N[C@@H]4CCCNC4)c(F)cc3F)n2nc1C(C)(O)C(F)(F)F` (single isomer, unassigned) [Compound 79a], the pIC50 in experiment [1] is 6.28; in experiment [2] it was greater than 9.30; in experiment [3] it was 6.09; in experiment [4] (48 hours) it was 7.09.
As for `COc1cc2ncc(-c3nc(N[C@H]4CNC[C@@H]4F)c(F)cc3F)n2nc1C(C)(O)C(F)(F)F` (single isomer, unassigned) [Compound 78a], the pIC50 in experiment [1] was 7.04; in experiment [2], 9.00; in experiment [3], 6.01; in experiment [4] (48 hours), 6.64.
Take `COc1cc2ncc(-c3nc(N[C@H]4CNCC[C@@H]4F)ccc3C)n2nc1C1CC1` [Compound 39a, 6-(6-cyclopropyl-7-methoxyimidazo[1,2-b]pyridazin-3-yl)-N-((3S,4S)-4-fluoropiperidin-3-yl)-5-methylpyridin-2-amine]: the pIC50 in experiment [1] was 7.35; in experiment [2] it was greater than 9.30; in experiment [3], 5.47; in experiment [4] (Homo sapiens, MOLM-14, 48 h), 6.89.
In the case of `COc1cc2ncc(-c3ccc(C)c(N[C@H]4CNCC[C@@H]4F)n3)n2nc1C1CC1` [Compound 38a, 6-(6-cyclopropyl-7-methoxyimidazo[1,2-b]pyridazin-3-yl)-N-((3S,4S)-4-fluoropiperidin-3-yl)-3-methylpyridin-2-amine], the pIC50 is 5.15 in experiment [1]; 7.30 in experiment [2]; less than 5.00 in experiment [3]; 5.54 in experiment [4] (Homo sapiens, MOLM-14, 48 h).
Consider `COc1cc2ncc(-c3nc(N[C@H]4CNC[C@@H]4F)ccc3C)n2nc1C1CC1` [Compound 43a, 6-(6-cyclopropyl-7-methoxyimidazo[1,2-b]pyridazin-3-yl)-N-((3S,4S)-4-fluoropyrrolidin-3-yl)-5-methylpyridin-2-amine], for which the pIC50 was 6.47 in experiment [1]; 9.15 in experiment [2]; 5.08 in experiment [3]; 6.19 in experiment [4] (Homo sapiens, MOLM-14, 48 h).
Take `COc1cc2ncc(-c3cccc(N[C@H]4CNCC[C@@H]4F)n3)n2nc1N1CCCC1=O` [Compound 26a, 1-(3-(6-(((3S,4S)-4-fluoropiperidin-3-yl)amino)pyridin-2-yl)-7-methoxyimidazo[1,2-b]pyridazin-6-yl)pyrrolidin-2-one]: the pIC50 in experiment [1] was 6.63; in experiment [2], 9.05; in experiment [3], 6.54; in experiment [4] (Homo sapiens, MOLM-14, 48 h), 6.59.
As for `COc1cc2ncc(-c3cccc(N[C@H]4CNC[C@@H]4F)n3)n2nc1N1CCCC1=O` [Compound 25a, 1-(3-(6-(((3S,4S)-4-fluoropyrrolidin-3-yl)amino)pyridin-2-yl)-7-methoxyimidazo[1,2-b]pyridazin-6-yl)pyrrolidin-2-one], the pIC50 in experiment [1] is 6.47; in experiment [2], 9.00; in experiment [3], 6.55; in experiment [4] (Homo sapiens, MOLM-14, 48 h), 5.99.
With `COc1cc2ncc(-c3nc(N[C@H]4CNC[C@@H]4F)c(F)cc3F)n2nc1C1CCC1` [Compound 13a, 6-(6-cyclobutyl-7-methoxyimidazo[1,2-b]pyridazin-3-yl)-3,5-difluoro-N-((3S,4S)-4-fluoropyrrolidin-3-yl)pyridin-2-amine], the pIC50 is 9.00 in experiment [1]; greater than 9.30 in experiment [2]; 8.22 in experiment [3]; 7.24 in experiment [4] (Homo sapiens, MOLM-14, 48 h).
On to `COc1cc2ncc(-c3nc(N[C@@H]4CCCNC4)ccc3F)n2nc1C1CC1` [Compound 44a, (R)-6-(6-cyclopropyl-7-methoxyimidazo[1,2-b]pyridazin-3-yl)-5-fluoro-N-(piperidin-3-yl)pyridin-2-amine], for which the pIC50 is 8.70 in experiment [1]; greater than 9.30 in experiment [2]; 7.21 in experiment [3]; 8.52 in experiment [4] (Homo sapiens, MOLM-14, 48 h).
As for `Fc1cc(F)c(-c2cnc3cc(OCC(F)F)cnn23)nc1N[C@H]1CNCC[C@@H]1F` [Compound 84a, 6-(7-(2,2-difluoroethoxy)imidazo[1,2-b]pyridazin-3-yl)-3,5-difluoro-N-((3S,4S)-4-fluoropiperidin-3-yl)pyridin-2-amine], the pIC50 was 8.40 in experiment [1]; greater than 9.30 in experiment [2]; 6.07 in experiment [3]; 7.34 in experiment [4] (Homo sapiens, MOLM-14, 48 h).
`COc1ccc(N[C@H]2CNCC[C@@H]2F)nc1-c1cnc2cc(OC)c(C3CC3)nn12` [Compound 37a, 6-(6-cyclopropyl-7-methoxyimidazo[1,2-b]pyridazin-3-yl)-N-((3S,4S)-4-fluoropiperidin-3-yl)-5-methoxypyridin-2-amine]: the results for the pIC50 in experiment [1], in experiment [2] and in experiment [3] were 6.61, 7.40 and less than 5.00, respectively.
For the compound `COc1cc2ncc(-c3nc(N[C@H]4CNC[C@@H]4F)c(F)cc3F)n2nc1N1CCCS1(=O)=O` [Compound 69a, 2-(3-(3,5-difluoro-6-(((3S,4S)-4-fluoropyrrolidin-3-yl)amino)pyridin-2-yl)-7-methoxyimidazo[1,2-b]pyridazin-6-yl)isothiazolidine 1,1-dioxide], the pIC50 in experiment [1] was 8.40; in experiment [2], greater than 9.30; in experiment [3], 6.90.
As to `COc1cc2ncc(-c3nc(N[C@H]4CNCC[C@@H]4F)ccc3C#N)n2nc1C1CC1` [Compound 31a, 2-(6-cyclopropyl-7-methoxyimidazo[1,2-b]pyridazin-3-yl)-6-(((3S,4S)-4-fluoropiperidin-3-yl)amino)nicotinonitrile], the values for the pIC50 in experiment [1], in experiment [2] and in experiment [3] were 8.00, 7.37 and 5.95, respectively.
